Values quoted from earlier work, collected in patent US10201585B2, “Methods for treatment of atherosclerosis” (Stealth Peptides International, Inc., priority 2012, dated 2019).

Key:
hepatitis C virus (HCV) = settings: alone and with interferon; cited from earlier work
[1] = system: spinal cord injury in rodents; settings: administered both pre- and post-injury; cited from earlier work

| Structure (SMILES) | Effect on HCV in an in vitro model of HCV infection (hepatitis C virus (HCV)) | Effect in spinal cord injury [1] |
| --- | --- | --- |
| O=C(O)C[C@H](O)C[C@H](O)/C=C/c1c(C2CC2)nc2ccccc2c1-c1ccc(F)cc1 [pitavastatin] | anti-HCV effect | – |
| CC[C@H](C)C(=O)O[C@H]1C[C@@H](C)C=C2C=C[C@H](C)[C@H](CC[C@@H]3C[C@@H](O)CC(=O)O3)[C@H]21 [lovastatin] | anti-HCV effect | – |
| CC(C)c1c(C(=O)Nc2ccccc2)c(-c2ccccc2)c(-c2ccc(F)cc2)n1CC[C@@H](O)C[C@@H](O)CC(=O)O [atorvastatin] | anti-HCV effect | promoting locomotion and tissue sparing, as well as reducing inflammation |
